Source: PubChem BioAssay (NCI)
“And” between values parts separate entries of the source, which are not always exact repeats. Identical values can stand only once.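 Following 48 hours of exposure in 96-well plates, responses at five concentrations were used to interpolate endpoints linearly. GI50 marks 50% less growth. Definition used: TGI = concentration required for complete inhibition of growth.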

Key:
Experiment in all cases: DTP human tumour cell line panel, 48 h
SK-OV-3 ovarian = system: SK-OV-3 ovarian
HS 578T breast = system: HS 578T breast
SN12C renal = system: SN12C renal
HCT-15 colon = system: HCT-15 colon
HCT-116 colon = system: HCT-116 colon
COLO 205 colon = system: COLO 205 colon
HT29 colon = system: HT29 colon
NCI-H226 lung = system: NCI-H226 lung
SK-MEL-2 melanoma = system: SK-MEL-2 melanoma
RXF 393 renal = system: RXF 393 renal

Row | SMILES | GI50 (SK-OV-3 ovarian) | TGI (SK-OV-3 ovarian) | GI50 (HS 578T breast) | TGI (HS 578T breast) | GI50 (SN12C renal) | TGI (SN12C renal) | GI50 (HCT-15 colon) | TGI (HCT-15 colon) [µM] | GI50 (HCT-116 colon) | TGI (HCT-116 colon) | GI50 (COLO 205 colon) | TGI (COLO 205 colon) | GI50 (HT29 colon) | TGI (HT29 colon) [µM] | GI50 (NCI-H226 lung) | TGI (NCI-H226 lung) | GI50 (SK-MEL-2 melanoma) | TGI (SK-MEL-2 melanoma) | GI50 (RXF 393 renal) | TGI (RXF 393 renal)
1 | CCN(CC)CCOc1ccc(C2=C(c3ccccc3)CCc3cc(OC)ccc32)cc1 | 3.22 µM | 13.6 µM | 3.72 µM | 10.9 µM | 5.48 µM | 20 µM | 1.16 µM | 4.06 | 1.55 µM | 4.19 µM | 1.53 µM | 3.04 µM | 0.445 µM | 1.87 | 3.07 µM | 12.6 µM | 2.15 µM | 4.67 µM | 10.2 µM | 35.9 µM
2 | COc1cc(OC)cc(N2CCN(C(=O)Nc3nc4cc(F)ccc4nc3OC)CC2)c1 | 0.0406 µM and 0.0838 µM and 0.033 µM | > 47.8 µM and 17.1 µM | < 0.01 µM and 0.027 µM and 0.0388 µM | 33.2 µM and > 100 µM | 0.067 µM and 0.0615 µM and 0.0576 µM | 51.1 µM and 24.5 µM | 0.0318 µM and 0.0346 µM and 0.034 µM | > 100 | 0.0381 µM and 0.0332 µM and 0.0334 µM | 1.54 µM and 0.214 µM | 0.0267 µM and 0.0321 µM and 0.0266 µM | 0.0831 µM and 0.123 µM and 0.0771 µM | 0.0343 µM and 0.0372 µM and 0.0306 µM | – | 0.197 µM and 0.0515 µM and 0.136 µM | – | 0.277 µM and 0.0666 µM and 0.0306 µM | 29.1 µM and 10.8 µM | < 0.01 µM and 0.016 µM | 40.7 µM and 66.1 µM
3 | C[C@H](NC(=O)CCC(F)(F)F)C(=O)N[C@@H]1C(=O)N(CCO)c2ncccc2-c2ccccc21 | > 100 µM | > 100 µM | > 100 µM | > 100 µM | > 100 µM | > 100 µM | > 100 µM | > 100 | > 100 µM | > 100 µM | > 100 µM | > 100 µM | > 100 µM | > 100 | > 100 µM | > 100 µM | > 100 µM | > 100 µM | > 100 µM | > 100 µM
4 | Nc1ccc2c(c1)CN1C(=O)c3ccccc3C1=N2 | 46.5 µM | > 122 µM | – | > 76 µM | 44.8 µM | > 125 µM | 42.4 µM | > 125 | 29.7 µM | > 125 µM | 33.9 µM | > 125 µM | 19.2 µM | > 125 | 36.8 µM | > 117 µM | – | > 125 µM | – | 102 µM
5 | CCCOc1c2cc(COC3OC(CO)C(O)C(O)C3O)cc1Cc1cc(COC3OC(CO)C(O)C(O)C3O)cc(c1OCCC)Cc1cc(COC3OC(CO)C(O)C(O)C3O)cc(c1OCCC)Cc1cc(COC3OC(CO)C(O)C(O)C3O)cc(c1OCCC)C2 (centres undefined) | > 100 µM and 34.9 µM | > 100 µM | – | > 100 µM | 96.6 µM and > 100 µM and 18.5 µM | > 100 µM and 43.5 µM | > 100 µM and 42.1 µM | > 100 | 48.6 µM and > 100 µM and 16.7 µM | > 100 µM and 32.2 µM | 38.9 µM and 35.9 µM and 13.1 µM | > 100 µM and 26.1 µM | > 100 µM and 89.8 µM and 32.6 µM | > 100 | 59.2 µM and > 100 µM and 17.7 µM | > 100 µM and 40.1 µM | 57 µM and 96.4 µM and 15.7 µM | > 100 µM and 35.6 µM | 14.2 µM and 23.9 µM | 33.9 µM and 87 µM and 77.4 µM
6 | N#CC1(C#N)C2C=CC(C3CCC=C32)C1(C#N)C#N (centres undefined) | – | > 10 µM | – | > 10 µM | – | > 10 µM | – | > 10 | – | > 10 µM | – | 3.66 µM | – | > 10 | – | > 10 µM | – | > 10 µM | – | > 10 µM
7 | COc1ccc(N=C2NN=C(c3c[nH]c4ccccc34)CS2)cc1OC | 14.2 µM | > 100 µM | 5.38 µM | > 100 µM | 18.4 µM | > 100 µM | 4.02 µM | > 100 | 8.25 µM | > 100 µM | 6.55 µM | > 76.5 µM | 4.01 µM | > 43.6 | 15.9 µM | > 100 µM | > 100 µM | > 100 µM | 6.19 µM | > 25.7 µM
